Reference: US10670605B2, “Cysteine reactive probes and uses thereof” (The Scripps Research Institute, priority 2015, dated 2020)

Tests used:
Assay in all cases: Competitive isoTOP-ABPP in situ (fragment-treated cells)
Format in all cases: cell-based
[1] = target: T1, cysteines in MDA-MB-231 and Ramos cells (Homo sapiens, UniProt P52597); conditions: for isoTOP-ABPP ratio P52597_C267: 200 μM, insitu
T1 sequence (P52597 1-415): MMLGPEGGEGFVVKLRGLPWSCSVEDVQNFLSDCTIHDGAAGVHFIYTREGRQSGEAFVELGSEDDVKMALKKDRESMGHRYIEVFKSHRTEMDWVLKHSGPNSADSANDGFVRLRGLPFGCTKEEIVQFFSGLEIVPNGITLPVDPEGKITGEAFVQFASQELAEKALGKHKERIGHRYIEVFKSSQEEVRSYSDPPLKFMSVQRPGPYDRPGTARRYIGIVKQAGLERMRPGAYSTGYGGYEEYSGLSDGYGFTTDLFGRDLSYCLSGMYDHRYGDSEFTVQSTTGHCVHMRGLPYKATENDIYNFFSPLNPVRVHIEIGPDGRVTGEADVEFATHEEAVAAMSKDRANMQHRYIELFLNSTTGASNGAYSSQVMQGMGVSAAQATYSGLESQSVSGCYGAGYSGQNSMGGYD

[2] = target: T2, cysteines in MDA-MB-231 and Ramos cells (Homo sapiens, UniProt Q96HE7)
T2 sequence (Q96HE7 24-468): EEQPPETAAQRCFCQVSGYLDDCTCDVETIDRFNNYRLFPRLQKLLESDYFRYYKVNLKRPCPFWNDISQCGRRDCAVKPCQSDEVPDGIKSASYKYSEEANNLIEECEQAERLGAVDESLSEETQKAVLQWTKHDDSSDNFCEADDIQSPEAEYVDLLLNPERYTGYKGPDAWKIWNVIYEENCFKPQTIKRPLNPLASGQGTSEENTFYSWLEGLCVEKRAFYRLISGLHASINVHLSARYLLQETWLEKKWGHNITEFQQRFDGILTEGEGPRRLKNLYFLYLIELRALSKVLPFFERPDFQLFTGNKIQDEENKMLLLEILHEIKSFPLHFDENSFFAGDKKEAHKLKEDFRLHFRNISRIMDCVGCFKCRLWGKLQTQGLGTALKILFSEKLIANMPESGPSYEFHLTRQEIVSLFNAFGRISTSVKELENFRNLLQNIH

[3] = target: cysteines in MDA-MB-231 and Ramos cells (Homo sapiens, UniProt Q9BUH6); conditions: for isoTOP-ABPP ratio Q9BUH6_C180: 200 μM, insitu
Sequence of cysteines in MDA-MB-231 and Ramos cells (Homo sapiens, UniProt Q9BUH6) (Q9BUH6 whole entry): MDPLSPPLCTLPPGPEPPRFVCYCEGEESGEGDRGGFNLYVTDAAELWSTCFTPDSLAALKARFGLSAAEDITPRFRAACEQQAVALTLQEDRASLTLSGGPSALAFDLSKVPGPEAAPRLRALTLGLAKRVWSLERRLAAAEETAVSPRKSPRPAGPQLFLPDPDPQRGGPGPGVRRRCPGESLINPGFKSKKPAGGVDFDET

[4] = target: T3, cysteines in MDA-MB-231 and Ramos cells (Homo sapiens, UniProt O75521); conditions: for isoTOP-ABPP ratio O75521_C312 / isoTOP-ABPP ratio O75521_C380: 200 μM, insitu
T3 sequence (O75521 39-394): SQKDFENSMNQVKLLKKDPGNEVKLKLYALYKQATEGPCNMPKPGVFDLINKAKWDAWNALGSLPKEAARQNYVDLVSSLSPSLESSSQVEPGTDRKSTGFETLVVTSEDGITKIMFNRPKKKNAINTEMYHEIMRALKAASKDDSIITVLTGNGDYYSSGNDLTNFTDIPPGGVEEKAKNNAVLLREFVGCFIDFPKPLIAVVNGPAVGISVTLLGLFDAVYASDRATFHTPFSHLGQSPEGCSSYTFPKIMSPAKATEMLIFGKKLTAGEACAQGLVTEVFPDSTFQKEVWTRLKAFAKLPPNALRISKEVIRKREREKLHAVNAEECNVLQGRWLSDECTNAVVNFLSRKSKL

[5] = target: cysteines in MDA-MB-231 and Ramos cells (Homo sapiens, UniProt Q9ULV4); conditions: for isoTOP-ABPP ratio Q9ULV4_C420: 200 μM, insitu
Sequence of cysteines in MDA-MB-231 and Ramos cells (Homo sapiens, UniProt Q9ULV4) (Q9ULV4 whole entry): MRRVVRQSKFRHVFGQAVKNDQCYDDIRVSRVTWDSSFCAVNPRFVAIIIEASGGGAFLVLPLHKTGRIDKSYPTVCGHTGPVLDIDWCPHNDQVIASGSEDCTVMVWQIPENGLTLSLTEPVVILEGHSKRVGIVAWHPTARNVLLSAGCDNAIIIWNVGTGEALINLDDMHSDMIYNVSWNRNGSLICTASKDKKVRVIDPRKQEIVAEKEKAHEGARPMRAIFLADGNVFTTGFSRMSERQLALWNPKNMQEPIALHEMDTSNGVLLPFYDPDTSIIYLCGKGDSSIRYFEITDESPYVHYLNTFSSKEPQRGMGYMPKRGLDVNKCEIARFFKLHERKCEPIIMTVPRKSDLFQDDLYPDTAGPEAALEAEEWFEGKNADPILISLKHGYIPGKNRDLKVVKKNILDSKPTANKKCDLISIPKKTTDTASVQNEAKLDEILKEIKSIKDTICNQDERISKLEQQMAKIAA

[6] = target: cysteines in MDA-MB-231 and Ramos cells (Homo sapiens, UniProt Q02252); conditions: for isoTOP-ABPP ratio Q02252_C317: 200 μM, insitu
Sequence of cysteines in MDA-MB-231 and Ramos cells (Homo sapiens, UniProt Q02252) (Q02252 34-535): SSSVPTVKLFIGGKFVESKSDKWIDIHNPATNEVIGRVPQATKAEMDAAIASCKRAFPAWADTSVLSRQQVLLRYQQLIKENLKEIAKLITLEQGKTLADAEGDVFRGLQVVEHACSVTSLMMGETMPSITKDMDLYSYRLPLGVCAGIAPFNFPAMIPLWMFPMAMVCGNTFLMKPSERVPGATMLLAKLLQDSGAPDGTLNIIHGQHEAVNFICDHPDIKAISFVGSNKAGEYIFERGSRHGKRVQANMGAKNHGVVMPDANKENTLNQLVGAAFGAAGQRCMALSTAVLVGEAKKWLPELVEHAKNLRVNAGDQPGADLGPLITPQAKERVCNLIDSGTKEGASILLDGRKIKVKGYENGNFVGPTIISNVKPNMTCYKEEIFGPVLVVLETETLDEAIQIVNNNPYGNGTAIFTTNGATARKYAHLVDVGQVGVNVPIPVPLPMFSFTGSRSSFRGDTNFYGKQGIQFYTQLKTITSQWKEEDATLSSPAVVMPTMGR

[7] = target: cysteines in MDA-MB-231 and Ramos cells (Homo sapiens, UniProt Q9BXW7); conditions: for isoTOP-ABPP ratio Q9BXW7_C392: 200 μM, insitu
Sequence of cysteines in MDA-MB-231 and Ramos cells (Homo sapiens, UniProt Q9BXW7) (Q9BXW7 24-423): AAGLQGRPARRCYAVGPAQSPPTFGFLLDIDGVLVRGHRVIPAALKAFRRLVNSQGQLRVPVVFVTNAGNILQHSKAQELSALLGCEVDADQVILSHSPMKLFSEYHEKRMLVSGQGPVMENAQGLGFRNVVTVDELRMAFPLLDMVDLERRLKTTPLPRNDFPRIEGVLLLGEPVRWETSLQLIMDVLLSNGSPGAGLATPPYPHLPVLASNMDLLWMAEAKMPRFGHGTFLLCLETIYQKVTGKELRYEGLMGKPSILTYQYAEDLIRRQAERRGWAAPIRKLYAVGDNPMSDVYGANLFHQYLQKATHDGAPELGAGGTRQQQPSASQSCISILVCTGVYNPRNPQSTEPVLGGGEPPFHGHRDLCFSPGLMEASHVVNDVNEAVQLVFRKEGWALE

[8] = target: T4, cysteines in MDA-MB-231 and Ramos cells (Homo sapiens, UniProt Q96RN5); conditions: for isoTOP-ABPP ratio Q96RN5_C618: 200 μM, insitu
T4 sequence (Q96RN5 1-788): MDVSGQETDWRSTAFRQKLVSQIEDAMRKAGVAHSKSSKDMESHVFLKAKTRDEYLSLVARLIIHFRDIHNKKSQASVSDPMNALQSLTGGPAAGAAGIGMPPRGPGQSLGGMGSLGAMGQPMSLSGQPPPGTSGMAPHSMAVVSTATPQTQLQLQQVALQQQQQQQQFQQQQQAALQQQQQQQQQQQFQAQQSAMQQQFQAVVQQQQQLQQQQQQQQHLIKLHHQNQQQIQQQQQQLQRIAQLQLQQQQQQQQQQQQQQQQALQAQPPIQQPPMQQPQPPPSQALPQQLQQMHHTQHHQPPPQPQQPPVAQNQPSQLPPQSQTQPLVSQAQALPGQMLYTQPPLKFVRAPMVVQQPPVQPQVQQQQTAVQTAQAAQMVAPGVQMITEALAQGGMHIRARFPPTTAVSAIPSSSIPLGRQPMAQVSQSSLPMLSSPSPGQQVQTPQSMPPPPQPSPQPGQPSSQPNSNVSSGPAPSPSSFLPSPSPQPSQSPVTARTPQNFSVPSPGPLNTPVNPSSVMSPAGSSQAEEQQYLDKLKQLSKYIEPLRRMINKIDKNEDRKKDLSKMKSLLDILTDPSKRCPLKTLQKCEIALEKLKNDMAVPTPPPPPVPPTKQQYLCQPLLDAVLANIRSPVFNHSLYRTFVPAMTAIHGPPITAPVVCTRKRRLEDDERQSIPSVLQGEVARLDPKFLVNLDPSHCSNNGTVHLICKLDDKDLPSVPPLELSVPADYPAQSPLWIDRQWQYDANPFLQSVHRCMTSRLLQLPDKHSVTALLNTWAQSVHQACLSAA

| SMILES | isoTOP-ABPP ratio P52597_C267 [1]; 231 | isoTOP-ABPP ratio P52597_C267 ([1]; ramos) | isoTOP-ABPP ratio Q96HE7_C241 ([2]; 200 μM, insitu, 231) | isoTOP-ABPP ratio Q9BUH6_C180 [3]; 231 | isoTOP-ABPP ratio O75521_C312 [4]; 231 | isoTOP-ABPP ratio O75521_C380 [4]; 231 | isoTOP-ABPP ratio Q9ULV4_C420 [5]; 231 | isoTOP-ABPP ratio Q02252_C317 [6]; 231 | isoTOP-ABPP ratio Q9BXW7_C392 [7]; 231 | isoTOP-ABPP ratio Q96RN5_C618 [8]; 231 | isoTOP-ABPP ratio Q96HE7_C37 ([2]; 200 μM, insitu, 231) | also measured |
| --- | --- | --- | --- | --- | --- | --- | --- | --- | --- | --- | --- | --- |
| COc1ccc(C2CC(c3cccs3)=NN2C(=O)CCl)cc1 (centres unmarked) [compound 4] |  |  |  |  |  |  |  |  |  |  |  | isoTOP-ABPP reactivity P52597_C267 HNRNPF ([1]; 100 μM in situ 231): 20.0; isoTOP-ABPP reactivity Q96HE7_C37 ERO1L ([2]; 100 μM in situ 231): 5.4; isoTOP-ABPP reactivity Q96HE7_C241 ERO1L ([2]; 100 μM in situ 231): 3.0; isoTOP-ABPP reactivity Q9BUH6_C180 C9orf142 ([3]; 100 μM in situ 231): 1.2; isoTOP-ABPP reactivity O75521_C312 ECI2 ([4]; 100 μM in situ 231): 1.0; isoTOP-ABPP reactivity O75521_C380 ECI2 ([4]; 100 μM in situ 231): 1.6; isoTOP-ABPP reactivity Q9ULV4_C420 CORO1C ([5]; 100 μM in situ 231): 1.3; isoTOP-ABPP reactivity Q02252_C317 ALDH6A1 ([6]; 100 μM in situ 231): 14.4; isoTOP-ABPP reactivity Q9BXW7_C392 CECR5 ([7]; 100 μM in situ 231): 2.2; isoTOP-ABPP reactivity O96RN5_C618 MED15 ([8]; 100 μM in situ 231): 4.5 |
| O=C(CCl)N1CCN(S(=O)(=O)c2ccccc2F)CC1 [compound 10] | 2.5 | 2.4 | 2.0 | 3.8 | 5.0 | 4.8 | 3.4 | 1.5 | 20.0 |  |  | isoTOP-ABPP ratio Q02252_C317 ([6]; ramos): 0.7 |
| O=C(CCl)NC(=O)NC12CC3CC(CC(C3)C1)C2 [compound 12] | 6.8 |  | 16.4 | 1.4 | 4.2 | 1.9 | 2.2 | 3.2 | 5.1 | 20.0 |  |  |
| O=C(CCl)NCCc1c[nH]c2ccccc12 [compound 13] | 1.2 | 1.3 | 1.5 | 1.1 | 0.7 | 1.0 | 1.1 | 1.3 | 2.0 | 1.0 |  | isoTOP-ABPP ratio Q96HE7_C241 ([2]; 200 μM, insitu, ramos): 1.3; isoTOP-ABPP ratio, cysteine Q96HE7_C37 ([2]; 200 μM, insitu, ramos): 1.4; isoTOP-ABPP ratio Q9ULV4_C420 ([5]; ramos): 1.1; isoTOP-ABPP ratio Q96RN5_C618 ([8]; ramos): 1.4 |
| COc1ccccc1OCCNC(=O)CCl [compound 28] |  |  | 1.1 | 1.1 |  | 0.8 | 0.7 | 1.1 | 1.0 | 0.7 |  |  |
| O=C(CCl)N1CCN(CC(=O)N2CCOCC2)CC1 [compound 29] |  | 1.2 |  |  |  |  |  |  |  |  |  | isoTOP-ABPP ratio Q96HE7_C37 ([2]; 200 μM, insitu, ramos): 2.1; isoTOP-ABPP ratio Q96HE7_C241 ([2]; 200 μM, insitu, ramos): 1.3; isoTOP-ABPP ratio Q9BUH6_C180 ([3]; ramos): 1.5; isoTOP-ABPP ratio O75521_C380 ([4]; ramos): 1.2; isoTOP-ABPP ratio Q02252_C317 ([6]; ramos): 1.2; isoTOP-ABPP ratio Q9BXW7_C392 ([7]; ramos): 1.5; isoTOP-ABPP ratio Q96RN5_C618 ([8]; ramos): 1.3 |
| C=CC(=O)Nc1cc(F)c(N2CCN(C(=O)OC(C)(C)C)CC2)c(F)c1 [compound 38] | 1.8 |  | 1.6 | 1.4 | 1.1 | 0.9 | 1.4 | 2.4 | 0.8 | 1.4 | 3.4 |  |
| Cc1ccc(C=C(C#N)C(=O)NCCN2CCOCC2)cc1 [compound 41] | 0.8 |  | 0.7 | 0.6 |  | 1.1 | 0.8 | 0.8 | 1.0 |  | 0.4 |  |
| CC1CCc2ccccc2N1C(=O)CCl (centres unmarked) [compound 45] | 4.1 |  | 2.1 | 5.5 | 0.7 | 1.2 | 3.2 | 2.6 | 4.9 | 20.0 | 20.0 |  |
